US20200164005A1, “PHARMACEUTICAL COMPOSITIONS OF A BILE ACID DERIVATIVE AND MICROBIOME AND USES THEREOF” (Intercept Pharmaceuticals, Inc., priority 2017, published 2020)

Key:
[1] = tested on: bacterial strains found in the human small intestine; assay: Inhibition of bacterial growth by bile acids, microbroth dilution, optical density at 630 nm; format: cell-based
Experimental: The toxicity of several bile acids to various gut microbiome species was examined. Representative species were exposed to different bile acids at a range of concentrations under either aerobic or anaerobic condition, and the growth of the species at these concentrations was measured by determining the optical density of the culture.
Lactobacillus casei CP was purchased from Custom Probiotics Inc. (Glendale, Calif.) as L. casei Custom Probiotic Powder (strain confirmed by Sanger sequencing of the 16S gene). Pediococcus pentosaceus KE-99 was purchased from Probiohealth (Beverly Hills, Calif.) as KE-99 LACTO Tablet (strain confirmed by Sanger sequencing of the 16S gene). L. casei 393, Streptoccocus thermophilus LMD-9, Akkermansia muciniphila Muc, and Veillonella parvula Te3 were purchased from the American Type Culture Collection (ATCC, Manassas, Va.). Lactococcus lactis NZ9000 was purchased from BOCA Scientific (Boca Raton, Fla.). Escherichia coli Nissle was obtained from Dr. Mark Goulian (University of Pennsylvania, Philadelphia, Pa.).
L. casei, P. pentasaceus, and L. lactis were grown in de Man, Rogosa, and Sharpe (MRS) medium (Anaerobe Systems, Morgan Hill, Calif.); E. coli was grown in lysogeny broth (LB) medium (Fisher Scientific, USA); S. thermophilus and A. muciniphila were grown in brain heart infusion (BHI) medium (Fisher Scientific, USA and Anaerobe Systems, Morgan Hill, Calif.), and; V. parvula was grown in reinforced clostridial medium (Fisher Scientific, USA). Aerobic cultures were incubated at 37° C.; anaerobic cultures were incubated at 37° C. in an anaerobic glove box (Coy Laboratories, Grass Lake, Mich.).
Glycochenodeoxycholic, glycocholic, and taurocholic acids were purchased from Sigma Aldrich (St. Louis, Mo.). Obeticholic acid was provided by Intercept Pharmaceuticals, Inc. (New York, N.Y.).
Inhibition of bacterial growth by bile acids was determined by the microbroth dilution method. Plates were prepared with 100 uL of medium containing the appropriate concentrations of bile acid. Wells were inoculated with 1 uL of an overnight culture, covered, and incubated overnight (3 days for A. muciniphila and V. parvula, which are slow growing organisms). Growth was measured via optical density at 630 nm, and measurements were zeroed against wells containing the appropriate bile acid level with no bacteria. All tests were performed in triplicate. Data is expressed as the percent (%) reduction in growth, which was calculated against controls (i.e., no bile acids). The responses of representative species to different concentrations of bile acids are illustrated by the heat maps shown in FIGS. 53A-53D.

[2] = tested on: KEGG pathways of the gut microbiome; assay: KEGG pathway differential abundance analysis of stool metagenome; format: in vivo, human; design: key to * (direction of KEGG pathway change): “↑” means the pathway is up-regulated on day 16; “↓” means the pathway is down-regulated on day 16; details: for * (direction of KEGG pathway change): KEGG pathway of the table row, day 16
Description: HUMAnN2 (Abubucker et al., PLoS Comput. Biol. 8, e1002358 (2012)) was used to calculate gene and pathway abundance from metagenomic sequencing data. Uniref50 (UniProt® Consortium, Nucleic Acids Res. 43, D204 (2015)) was used for gene family definition. MetaCyc (Caspi et al., Nucleic Acids Res. 42, D459 (2014)) and KEGG (Kanehisa and Goto, Nucleic Acids Res. 28, 27 (2000); Kanehisa et al., Nucleic Acids Res. 44, D457 (2016)) were used for pathway analysis. • Gene family identification: Initially, 989251 gene families were identified from the dataset by HUMAnN2. Quantile normalization was implemented. For each sample, the RPK values were added up till 90% percentile of all genes (normalization factor, nf). RPK value of each gene in each sample was then divided by the nf of the sample, and multiplied with the mean of nf of all samples. 683270 uncharacterized genes were removed. Genes undetected in over 90% of samples (101994) were removed. 203987 genes were kept. Due to the large number of genes identified, 25% of the most varying genes were selected for further analysis. The most varying genes were defined by the coefficient variation (cv=sd/mean) of log 2 transformed value. • MetaCyc pathway identification: HUMAnN2 identified 567 MetaCyc pathways from the dataset. Quantile normalization was then performed. For each sample, the abundance values were added up till 90% percentile of all pathways (normalization factor, nf). Each pathway abundance in each sample was divided by the nf of the sample, and then multiplied with the mean of nf for all samples. The low abundance pathways (52), which were not detected on over 90% of all samples, were removed. 515 high quality MetaCyc pathways were kept for further analysis. • KEGG pathway identification: HUMAnN2 identified 160 KEGG pathways from the dataset. Quantile normalization was applied, and low abundance pathways were removed. 66 high quality KEGG pathways were kept for further analysis.
gene abundance˜aov(day*OCAdose+error(subject ID)) • Pathway differential abundance analysis: For each of the identified pathways, repeated measure ANOVA was also performed to study the time effect and OCA dose effect on pathway abundance change.
pathway abundance˜aov(day*OCAdose+error(subject ID)) • FGF19 analysis: The GEE model was applied in order to study the relationship of FGF19 change with the microbiome, gene family, and the pathway abundance change over time. The R function geeglm from R package geepack was used for gee modeling. Both FGF19 level and species/gene/pathway relative abundance were log 2 transformed before applying GEE model.

[3] = molecular target: T1, farnesoid X receptor (FXR) (Homo sapiens, UniProt Q96RI1); details: cited from earlier work
T1 sequence (Q96RI1 1-486): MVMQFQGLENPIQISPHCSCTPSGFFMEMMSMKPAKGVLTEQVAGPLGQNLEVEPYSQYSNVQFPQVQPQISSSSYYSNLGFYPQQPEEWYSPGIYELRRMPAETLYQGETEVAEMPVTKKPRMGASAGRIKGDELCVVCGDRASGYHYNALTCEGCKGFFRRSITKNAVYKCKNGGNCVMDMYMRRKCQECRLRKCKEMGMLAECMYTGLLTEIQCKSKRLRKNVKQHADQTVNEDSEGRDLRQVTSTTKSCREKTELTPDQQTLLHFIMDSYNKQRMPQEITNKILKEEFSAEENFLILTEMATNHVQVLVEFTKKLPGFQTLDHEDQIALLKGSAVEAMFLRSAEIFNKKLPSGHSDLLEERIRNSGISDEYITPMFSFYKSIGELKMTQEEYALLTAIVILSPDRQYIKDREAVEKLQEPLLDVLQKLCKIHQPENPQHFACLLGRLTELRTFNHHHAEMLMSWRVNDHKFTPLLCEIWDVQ

CC[C@H]1[C@@H](O)[C@@H]2[C@H](CC[C@]3(C)[C@@H]([C@H](C)CCC(=O)O)CC[C@@H]23)[C@@]2(C)CC[C@@H](O)C[C@@H]12 [OCA, 3α,7α-dihydroxy-6α-ethyl-5β-cholan-24-oic acid]
effect on growth at calculated physiologic levels of the human small intestine ([1]; approximately 12 micromolar, aerobically or anaerobically): no effect on any strain tested | effect on growth at high concentrations ([1]; high concentrations of OCA): growth inhibitory effect on several strains | * (direction of KEGG pathway change) ([2]; Fatty acid biosynthesis): ↓ | * (direction of KEGG pathway change) ([2]; Purine metabolism): ↑ | number of KEGG pathways differentially abundant over time ([2]; of 66, FDR<0.05 for time effect): 26 | OCA dose effect on KEGG pathway abundance ([2]; repeated measure ANOVA, FDR<0.05): No OCA dose or dose×day interaction was observed | potency as FXR agonist relative to the endogenous FXR agonist CDCA [3]: 100 fold
